The source of these data is US20090023933A1, “METHOD FOR ISOLATING ACIDS FROM CHEMICAL REACTION MIXTURES BY USING 1-ALKYLIMIDAZOLES” (BASF Aktiengesellschaft, priority 2003, published 2009).

The data set is described as follows: Behavior of the 1-alkylimidazoles toward 30% strength NaCl solution (shaking funnel, phase separation, Karl-Fischer and GC analysis). The settings on record: for Solubility of free base in NaCl solution in %: free 1-alkylimidazole, 5 g imidazole shaken with 5 g solution of 30 g NaCl in 100 g water, lower phase extracted, GC with internal standard; for Solubility of water in imidazole in %: water determination on upper (imidazole) phase by Karl-Fischer titration after shaking with NaCl solution.

Procedure: A solution of 30 g of sodium chloride in 100 g of demineralized water was prepared. 5 g of this solution were admixed with 5 g of the imidazole derivative listed in a shaking funnel and the mixture was shaken vigorously. The phases were then separated and weighed.
The weight of the upper phase was recorded.
For the purposes of analysis, a water determination was carried out on the upper phase (by Karl-Fischer titration). The lower phase was, if present, separated off, admixed with 1N KOH solution and extracted twice with xylene. After drying over magnesium sulfate, an internal standard (heptadecane) was added and the amount of dissolved imidazole was backcalculated after GC analysis.

As to `CCCn1ccnc1` [nPr, n-propylimidazole], the “Solubility of free base in NaCl solution in %” value was 3% and the “Solubility of water in imidazole in %” value worked out at 30%.
In the case of `CCn1ccnc1` [Et (comp.)], the “Solubility of free base in NaCl solution in %” value stood at 100% and the “Solubility of water in imidazole in %” value is on record as “ca. 50%”.
The matching figures for `CCCCn1ccnc1` [nBu, n-butylimidazole]: 0.2% and 16%.
The matching figures for `Cn1ccnc1` [Me (comp.)]: 100% and “ca. 50%”.
